Patent US20240343732A1, “COMPOUNDS FOR DEGRADATION OF CYCLIN-DEPENDENT KINASE 7(CDK7)” (QURIENT CO., LTD., priority 2021, published 2024)

Tests used:
CDK2 = biological target: T1, CDK2 (Homo sapiens, UniProt P24941); experiment: Binding assay (FRET, LanthaScreen Eu, Tracer236) for CDK2; conditions: for IC50: read-out: CDK2 IC50 (enzyme binding assay)
T1 construct: His; purchased Invitrogen PR4448B
Method: (§1) Inhibition activity of compound to CDK7 kinase was tested in a binding assay which was applied to the FRET (fluorescence resonance energy transfer) principle from the europium (Eu) donor fluorophore to the acceptor fluorophore on the kinase tracer. Test compounds were made to 1.125 mM of compound solution, and then this compound solution 4-fold serial diluted in 8 steps using an automated liquid handler (JANUS™, PerkinElmer). 80 nL/well of each diluted compound solution was added into the 384-well plate (Greiner, Cat #784075) first and 7.5 ul/well of working solution [5 nM of CDK7/CycH/MNAT1 (Invitrogen, Cat #PR6749B), 4 nM of Biotin anti-His Tag Antibody (Invitrogen, Cat #PV6090), and LanthaScreen® Eu-Streptavidin (Invitrogen, Cat #PV6025)] was added. After mixing the solution well, the same volume with the working solution of Tracer236 (Invitrogen, Cat #PV5592) was added into each well in the plate. The plate was incubated for 60 minutes at room temperature and then all the fluorescence were measured using Envision leader (Perkin Elmer, USA) [Laser as excitation light; […] as the first and the second emission filter]. Data was analysed using XL Fit software.
(§2) All of the synthesized compounds were screened in the above-mentioned assay procedure. To identify the inhibition activity of compounds for other CDKs including CDK1 (Invitrogen, Cat #PR4768C), CDK2 (Invitrogen, Cat #PR4448B) and CDK5 (Invitrogen, Cat #PR8543B) were tested using the same protocol under reasonable concentration of Tracer236 and kinases for each assay. The formula for the assay buffer summarized in below table.

CDK1 = biological target: T2, CDK1 (Homo sapiens, UniProt P06493); experiment: Binding assay (FRET, LanthaScreen Eu, Tracer236) for CDK1; conditions: for IC50: read-out: CDK1 IC50 (enzyme binding assay)
T2 construct: His; purchased Invitrogen PR4768C
T2 sequence (P06493 whole entry): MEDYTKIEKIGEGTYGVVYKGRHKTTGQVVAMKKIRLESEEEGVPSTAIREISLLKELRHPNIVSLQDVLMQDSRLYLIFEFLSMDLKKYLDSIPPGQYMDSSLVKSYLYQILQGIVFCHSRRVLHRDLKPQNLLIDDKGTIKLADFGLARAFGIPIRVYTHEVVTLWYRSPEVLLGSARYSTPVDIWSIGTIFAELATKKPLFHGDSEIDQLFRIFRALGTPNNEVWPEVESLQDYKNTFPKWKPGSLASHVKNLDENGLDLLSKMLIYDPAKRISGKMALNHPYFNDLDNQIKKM
T2 sequence (P14635 whole entry partner): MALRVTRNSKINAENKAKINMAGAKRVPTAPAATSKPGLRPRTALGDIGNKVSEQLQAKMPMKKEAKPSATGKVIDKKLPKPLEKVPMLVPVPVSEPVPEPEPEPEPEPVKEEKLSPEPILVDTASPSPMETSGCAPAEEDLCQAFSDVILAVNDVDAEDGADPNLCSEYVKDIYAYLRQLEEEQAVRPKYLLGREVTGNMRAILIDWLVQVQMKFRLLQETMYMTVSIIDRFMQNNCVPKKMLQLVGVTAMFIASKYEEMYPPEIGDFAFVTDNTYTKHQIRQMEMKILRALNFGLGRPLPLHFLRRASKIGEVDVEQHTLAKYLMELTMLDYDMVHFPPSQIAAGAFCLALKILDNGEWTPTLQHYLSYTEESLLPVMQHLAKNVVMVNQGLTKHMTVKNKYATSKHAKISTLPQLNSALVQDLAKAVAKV
Method: as §1, §2

CDK5 = biological target: T3, CDK5 (Homo sapiens, UniProt Q00535); experiment: Binding assay (FRET, LanthaScreen Eu, Tracer236) for CDK5; conditions: for IC50: read-out: CDK5 IC50 (enzyme binding assay)
T3 construct: His; purchased Invitrogen PR8543B
T3 sequence (Q00535 whole entry): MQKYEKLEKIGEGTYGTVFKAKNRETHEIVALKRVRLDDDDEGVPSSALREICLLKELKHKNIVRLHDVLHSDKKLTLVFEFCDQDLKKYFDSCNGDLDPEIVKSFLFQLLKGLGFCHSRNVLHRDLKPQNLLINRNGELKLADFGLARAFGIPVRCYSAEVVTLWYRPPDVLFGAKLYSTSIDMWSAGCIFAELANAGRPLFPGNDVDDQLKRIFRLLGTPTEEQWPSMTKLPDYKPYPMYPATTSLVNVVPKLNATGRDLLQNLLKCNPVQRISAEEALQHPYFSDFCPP
T3 sequence (Q15078 99-307 partner limits assumed): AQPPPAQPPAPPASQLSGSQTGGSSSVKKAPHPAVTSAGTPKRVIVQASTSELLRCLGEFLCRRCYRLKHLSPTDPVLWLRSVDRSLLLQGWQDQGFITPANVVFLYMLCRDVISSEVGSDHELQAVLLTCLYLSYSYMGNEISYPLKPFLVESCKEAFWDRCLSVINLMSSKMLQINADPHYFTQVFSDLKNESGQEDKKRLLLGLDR
Method: as §1, §2

CDK7 protein = biological target: T4, CDK7 protein (Homo sapiens, UniProt P50613); experiment: Western blot assay for CDK7 protein degradation in A2780 cells; format: cell-based; conditions: 24 hours; for DC50: read-out: Compound concentration that caused 50% CDK7 protein degradation in A2780 cells (DC50);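 on all read-outs here: A is DC50 up to 100 nM B is 100 to 1000 nM C is above 1000 nM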
T4 construct: To verify endogenous CDK7 protein degradation; endogenous in cells; host or cells: A2780 (ECACC 93112519)
T4 sequence (P50613 whole entry): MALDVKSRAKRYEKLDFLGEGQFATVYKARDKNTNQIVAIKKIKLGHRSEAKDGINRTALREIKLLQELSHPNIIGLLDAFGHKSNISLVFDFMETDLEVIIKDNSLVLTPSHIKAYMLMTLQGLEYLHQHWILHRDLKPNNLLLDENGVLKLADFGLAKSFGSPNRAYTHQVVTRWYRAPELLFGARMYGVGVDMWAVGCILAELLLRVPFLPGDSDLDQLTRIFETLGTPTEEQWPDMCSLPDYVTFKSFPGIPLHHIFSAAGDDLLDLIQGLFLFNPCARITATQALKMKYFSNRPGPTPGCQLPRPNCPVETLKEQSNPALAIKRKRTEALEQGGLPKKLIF
Method: Human ovarian cancer cell line, A2780 (Cat #93112519) was obtained from ECACC. Cells were grown in RPMI-1640 media (Invitrogen, Cat #22400105) supplemented with 10% FBS (Hyclone, Cat #SH30084.03) and 1% penicillin/streptomycin (Hyclone, Cat #SV30010) and cultured at 37° C., 5% Co2 in a humidified chamber. All cell lines were routinely tested for mycoplasma.
To verify endogenous CDK7 protein degradation upon treatment of CDK7-specific degrader, the western blot assay was conducted a 24 hours' time period. 6×10^5 cells/well of A2780 cells were plated in 6-well plate. After 24 hours, the cells were treated with various concentrations of the compound corresponding range. DMSO solvent without compound served as a control and final DMSO concentration was not to exceed 0.1% of total volume. After 24 hours of incubation at 37° C., 5% Co2 incubator, cells were collected and lysed with 60 ul of lysis buffer. Collected lysates were incubated for 30 min on ice and collect supernatant through centrifugation at 12,000 rpm for 10 min at 4° C. The protein in lysates were quantified with BCA protein quantification kit (Pierce, Cat #23227) following manufacture's protocol. Cell lysates were diluted into 1 ug/ul of concentration with lysis buffer. 20 ug of protein was loaded to each well of 4˜12% Bis-Tris gel (Invitrogen, Cat #NP0336BOX) with MOPS running buffer (Invitrogen, Cat #NP0001). The proteins were transferred from gel to membrane and incubated with primary antibody as followed at 4° C. overnight; CDK7 (CST, Cat #2090S) and β-actin (Santa Cruz, Cat #sc-47778) 1:20,000. The signals were developed and acquired with ImageQuant™ LAS 4000.

CDK7/CycH/MNAT1 = biological target: T5, CDK7/CycH/MNAT1 (Homo sapiens, UniProt P50613); experiment: Binding assay (FRET, LanthaScreen Eu, Tracer236) for CDK7; conditions: read-out: CDK7 IC50 (enzyme binding assay)
T5 construct: His; purchased Invitrogen PR6749B
T5 sequence (P50613 whole entry): as above
T5 sequence (P51946 whole entry partner): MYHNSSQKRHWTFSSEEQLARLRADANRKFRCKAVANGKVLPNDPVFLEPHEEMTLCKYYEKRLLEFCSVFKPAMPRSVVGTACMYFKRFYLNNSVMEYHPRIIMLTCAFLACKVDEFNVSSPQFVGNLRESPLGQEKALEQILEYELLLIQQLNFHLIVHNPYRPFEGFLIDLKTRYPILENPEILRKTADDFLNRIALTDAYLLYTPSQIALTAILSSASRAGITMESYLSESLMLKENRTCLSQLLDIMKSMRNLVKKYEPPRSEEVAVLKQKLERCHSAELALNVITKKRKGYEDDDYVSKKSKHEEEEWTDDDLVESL
T5 sequence (P51948 whole entry partner): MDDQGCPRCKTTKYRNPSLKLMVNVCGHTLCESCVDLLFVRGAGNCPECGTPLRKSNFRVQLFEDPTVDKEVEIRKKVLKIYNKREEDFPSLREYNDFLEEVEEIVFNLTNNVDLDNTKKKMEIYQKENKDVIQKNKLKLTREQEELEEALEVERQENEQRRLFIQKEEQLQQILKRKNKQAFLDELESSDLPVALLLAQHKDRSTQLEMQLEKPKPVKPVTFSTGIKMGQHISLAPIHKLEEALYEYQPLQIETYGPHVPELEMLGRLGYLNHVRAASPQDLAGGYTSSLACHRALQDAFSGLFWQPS
Method: as §1, §2

Row | SMILES | CDK2/CDK7: Selectivity of CDK7 inhibition over CDK2 inhibition (CDK2) | IC50 (CDK2) [µM] | CDK1/CDK7: Selectivity of CDK7 inhibition over CDK1 inhibition (CDK1) | IC50 (CDK1) [µM] | CDK5/CDK7: Selectivity of CDK7 inhibition over CDK5 inhibition (CDK5) | IC50 (CDK5) [µM] | Compound concentration that caused 50% CDK7 protein degradation in A2780 cells (DC50, nM) (CDK7 protein) | DC50 (CDK7 protein) [µM] | IC50 (CDK7/CycH/MNAT1) [µM]
1 | CC(C)c1cnn2c(NCc3ccccc3-c3nccc4cc(NCCOCCOCCNC(=O)CNc5cccc6c5C(=O)N(C5CCC(=O)NC5=O)C6=O)ccc34)nc(O[C@@H]3CCCNC3)nc12 (stereo partly drawn) [Compound 7] | A (A indicates [fold] > 500) | > 1 | A (A indicates [fold] > 500) | > 1 | A (A indicates [fold] > 500) | > 1 | B or A | 0.1 to 1 | ≤ 0.1
2 | CC(C)c1cnn2c(NCc3ccccc3-c3nccc4cc(NC(=O)COCCOCCOCCNC(=O)CNc5cccc6c5C(=O)N(C5CCC(=O)NC5=O)C6=O)ccc34)nc(O[C@@H]3CCCNC3)nc12 (stereo partly drawn) [Compound 9] | A (A indicates [fold] > 500) | > 1 | A (A indicates [fold] > 500) | > 1 | A (A indicates [fold] > 500) | > 1 | B or A |  | ≤ 0.1
3 | CC(C)c1cnn2c(NCc3ccccc3-c3nccc4cc(NCCOCCOCCNC(=O)CNc5ccc6c(c5)C(=O)N(C5CCC(=O)NC5=O)C6=O)ccc34)nc(O[C@@H]3CCCNC3)nc12 (stereo partly drawn) [Compound 10] | A (A indicates [fold] > 500) | > 1 | A (A indicates [fold] > 500) | > 1 | A (A indicates [fold] > 500) | > 1 | B or A | 0.1 to 1 | ≤ 0.1
4 | Cc1ncsc1-c1ccc(CNC(=O)[C@@H]2C[C@@H](O)CN2C(=O)[C@@H](NC(=O)C2(F)CC2)C(C)(C)C)c(OCCOCCOCCNc2ccc3c(-c4ccccc4CNc4nc(O[C@@H]5CCCNC5)nc5c(C(C)C)cnn45)nccc3c2)c1 [Compound 11] | A (A indicates [fold] > 500) | > 1 | A (A indicates [fold] > 500) | > 1 | A (A indicates [fold] > 500) | > 1 |  | ≤ 0.1 | ≤ 0.1
5 | CNCC(=O)N[C@H](C(=O)N1C[C@@H](Oc2cccc(OCCOCCOCCNc3ccc4c(-c5ccccc5CNc5nc(O[C@@H]6CCCNC6)nc6c(C(C)C)cnn56)nccc4c3)c2)C[C@H]1C(=O)N[C@@H]1CCCc2ccccc21)C1CCCCC1 [Compound 12] | A (A indicates [fold] > 500) | > 1 | A (A indicates [fold] > 500) | > 1 | A (A indicates [fold] > 500) | > 1 |  | > 1 | ≤ 0.1
6 | CC(C)C[C@H](NC(=O)[C@@H](O)[C@H](N)Cc1ccccc1)C(=O)NCCOCCOCCNc1ccc2c(-c3ccccc3CNc3nc(O[C@@H]4CCCNC4)nc4c(C(C)C)cnn34)nccc2c1 [Compound 13] | A (A indicates [fold] > 500) | > 1 | A (A indicates [fold] > 500) | > 1 | A (A indicates [fold] > 500) | > 1 |  | > 1 | ≤ 0.1
7 | CC(C)c1cnn2c(NCc3ccccc3-c3nccc4cc(NCCOCCOCCNC(=O)CNc5cccc6c5CN(C5CCC(=O)NC5=O)C6=O)ccc34)nc(O[C@@H]3CCCNC3)nc12 (stereo partly drawn) [Compound 14] | A (A indicates [fold] > 500) | > 1 | A (A indicates [fold] > 500) | > 1 | A (A indicates [fold] > 500) | > 1 | B or A | 0.1 to 1 | ≤ 0.1
8 | Cc1ncsc1-c1ccc(CNC(=O)[C@@H]2C[C@@H](O)CN2C(=O)[C@@H](NC(=O)CCOCCOCCNc2ccc3c(-c4ccccc4CNc4nc(O[C@@H]5CCCNC5)nc5c(C(C)C)cnn45)nccc3c2)C(C)(C)C)cc1 [Compound 15] | A (A indicates [fold] > 500) | > 1 | A (A indicates [fold] > 500) | > 1 | A (A indicates [fold] > 500) | > 1 |  | ≤ 0.1 | ≤ 0.1
9 | CC(C)c1cnn2c(NCc3ccccc3-c3nccc4cc(NCCOCCOCCNC(=O)CNc5ccc6c(c5)CN(C5CCC(=O)NC5=O)C6=O)ccc34)nc(O[C@@H]3CCCNC3)nc12 (stereo partly drawn) [Compound 16] | A (A indicates [fold] > 500) | > 1 | A (A indicates [fold] > 500) | > 1 | A (A indicates [fold] > 500) | > 1 | B or A | 0.1 to 1 | ≤ 0.1
10 | Cc1ncsc1-c1ccc([C@H](C)NC(=O)[C@@H]2C[C@@H](O)CN2C(=O)[C@@H](NC(=O)CCOCCOCCNc2ccc3c(-c4ccccc4CNc4nc(O[C@@H]5CCCNC5)nc5c(C(C)C)cnn45)nccc3c2)C(C)(C)C)cc1 [Compound 17] | A (A indicates [fold] > 500) | > 1 | A (A indicates [fold] > 500) | > 1 | A (A indicates [fold] > 500) | > 1 |  | ≤ 0.1 | ≤ 0.1
